Source: patent US11357851B2, “Uses of myostatin antagonists, combinations containing them and uses thereof” (Novartis AG, priority 2015, dated 2022)

Key:
[1] = test system: CT-26 mouse colon cancer-induced cachexia; test: Time-to-progression study in CT-26 mouse colon cancer cachexia; format: in vivo; details: for time-to-progression (days until body weight loss 20% or tumor volume 1,500 mm^3): cisplatin combination study, CDD866 once weekly; for time-to-progression (median days elapsed until an interruption criterion): everolimus combination study, after randomization and treatment start, CDD866 twice weekly
Experimental: Time-to-progression study was performed as a follow-up to assess if the combination of CDD866 and cisplatin or everolimus slows progression of cancer cachexia to the interruption criteria which was defined by body weight loss reaching to 20% or tumor volume exceeding 1,500 mm^3. The treatment regimen was the same as used in the therapeutic intervention study. Body weight and tumor volume were measured 2 to 3 times per week in the first 2 weeks and then every day until the end of experiment. The mice were euthanized with CO2, when body weight loss was close to 20% or tumor volume exceeded 1,500 mm^3.
(§1) Values are expressed as mean±SEM. Statistical analysis was carried out using Sidak's multiple comparison test following analysis of variance to compare the treatment groups to the control groups (non-tumor and tumor-bearing), anti-cancer agent alone (cisplatin or everolimus) or CDD866 alone in the therapeutic intervention study, and Dunn's multiple comparisons test for time-to-progression study. Differences were considered to be significant when the probability value was <0.05. Statistical analyses were performed by GraphPad Prism (GraphPad Software, Inc., La Jolla, Calif., USA). Body weight was expressed as % change from day 0 as the start of treatment. Tumor volumes in cubic mm were calculated according to the formula (length×width^2)/2. Muscle weight was normalized to the body weight on the day of cell inoculation (initial body weight) and then expressed as % change from the non-tumor control group.
Extensive tumor growth and subsequent body weight loss are important predictors of mortality in cancer patients. We therefore wanted to evaluate whether the combination of CDD866 and cisplatin has an impact on the length of survival. For ethical reason we abstained from classical survival studies. Instead, each mouse was individually euthanized when experiencing either a body weight loss exceeding 20% of initial body weight, or reaching a tumor volume of 1,500 mm^3, determined as time-to-progression.

[2] = test system: CT-26 mouse colon cancer-induced cachexia; test: Therapeutic intervention study in CT-26 mouse colon cancer-induced cachexia (tumor-bearing mice); format: in vivo; details: for body weight loss (of initial body weight): tumor-bearing animals, ten days after starting treatment, CDD866 20 mg/kg s.c. once weekly, cisplatin 1 mg/kg i.p. twice a week; for CT-26-induced loss in body weight: day 14, CDD866 twice weekly; for CT-26-induced muscle weight loss: tibialis anterior, gastrocnemius-soleus-plantaris complex, quadriceps
Experimental: (§2) Adult male Balb/cJRj mice at the age of 11 to 12 weeks were purchased from Janvier Laboratories (Le Genest St Isle, France). Mice were acclimated to the facility for 7 days. Animals were housed in groups of 5 or less animals at 25° C. with a 12:12 h light-dark cycle. They were fed a standard laboratory diet containing 18.2% protein and 3.0% fat with an energy content of 15.8 MJ/kg (NAFAG 3890, Kliba, Basel, Switzerland). Food and water were provided ad libitum.
(§3) Mouse colon cancer cell line CT-26 was cultured in RPMI 1640 medium supplemented with 10% heat inactivated fetal bovine serum and antibiotic-antimycotic solution at 37° C. with 5% CO2. CT-26 cells were harvested by treatment with Accutase® (PAA Laboratories GmbH, Pasching, Austria) and suspended in a solution containing 50% PBS and 50% BD Matrigel™ Matrix without phenol red (catalog number 356237, BD Biosciences, Bedford, Mass., USA). A 0.1 mL of cell suspension containing 3×10^5 cells was inoculated subcutaneously into the left flank of mice. When tumors were palpable, mice bearing tumors with acceptable morphology and size were randomized to produce groups balanced with respect to mean and range of tumor sizes and body weight. Treatments were initiated on the day of randomization. Therapeutic intervention study was conducted to evaluate the effect of CDD866, either alone or in combination with anti-cancer agents. CDD866 was administered at 20 mg/kg s.c., once or twice weekly in a volume of 5 mL/kg. Cisplatin was administered at 1 mg/kg i.p. twice a week. Everolimus was administered at 5 mg/kg p.o. once daily. In the combination groups, cisplatin or everolimus treatment was combined with once or twice weekly subcutaneous treatment of CDD866, respectively. Body weight and tumor volume were measured 2 to 3 times per week. At the end of the experiment, the mice were euthanized with CO2, and tumor, tibialis anterior, gastrocnemius-soleus-plantaris complex, quadriceps were collected and weighed.
as §1

non-tumor bearing mice = test: Therapeutic intervention study, non-tumor bearing (healthy control) mice; format: in vivo, mouse; details: for body weight in healthy control animals: cisplatin study, non-tumor mice; for weight of tibialis anterior, gastrocnemius-soleus-plantaris complex and quadriceps muscles in non-tumor bearing group / body weight gain in non-tumor bearing group: everolimus study; for body weight gain in non-tumor bearing group: up to day 14, CDD866 20 mg/kg s.c. twice weekly, everolimus 5 mg/kg p.o. once daily
Experimental: as §2, §3, §1

[3] = cisplatin study, CT-26 tumor-bearing mice
[4] = cisplatin study, CT-26 tumor-bearing mice, normalized to initial body weight, versus non-tumor control

In the case of `N.N.[Cl][Pt][Cl]` [cisplatin, cis-diamminedichloro-platinum(II)], the “time-to-progression (days until body weight loss 20% or tumor volume 1,500 mm^3)” value [1] is reported as 12 days, the “tumor progression / CT-26 tumor volume and weight” value [2, 3] is reported as “reduced CT-26 tumor weight to similar levels” and the “gastrocnemius muscle weight loss” value [2, 4] is reported as 25%. For the same compound, the “tibialis anterior muscle wasting (muscle loss)” value [2, 4] was 34%, the “body weight loss (of initial body weight)” value ([2]; cisplatin study) was 20% and the “body weight in healthy control animals” value (non-tumor bearing mice) was “did not affect body weight”.

`CO[C@H]1C[C@@H]2CC[C@@H](C)[C@@](O)(O2)C(=O)C(=O)N2CCCC[C@H]2C(=O)O[C@H]([C@H](C)C[C@@H]2CC[C@@H](OCCO)[C@H](OC)C2)CC(=O)[C@H](C)/C=C(\C)[C@@H](O)[C@@H](OC)C(=O)[C@H](C)C[C@H](C)/C=C/C=C/C=C/1C` [everolimus, (1R,9S,12S,15R,16E,18R,19R,21R,23S,24E,26E,28E,30S,32S,35R)-1,18-d ihydroxy-12-{(1 R)-2-[(1S,3R,4R)-4-(2-hydroxyethoxy)-3-methoxycyclohexyl]-1-methylethyl}-19,30-dimethoxy-15,17,21,23,29,35-hexamethyl-11,36-dioxa-4-aza-tricyclo[30.3.1.04,9]hexatriaconta-16,24,26,28-tetraene-2,3,10,14,20-pentaone] was tested, and the “time-to-progression (median days elapsed until an interruption criterion)” value [1] was 23 days, the CT-26 tumor growth ([2]; everolimus study) was “slowed CT-26 tumor growth” and the CT-26 tumor weight ([2]; everolimus study) was “significantly reduced”. For the same compound, the “CT-26-induced loss in body weight” value ([2]; everolimus study) was “completely prevented”, the “CT-26-induced muscle weight loss” value ([2]; everolimus study) was “significantly reduced” and the “weight of tibialis anterior, gastrocnemius-soleus-plantaris complex and quadriceps muscles in non-tumor bearing group” value (non-tumor bearing mice) was “not affected”. For the same compound, the “body weight gain in non-tumor bearing group” value (non-tumor bearing mice) was “not affected significantly”.

“CDD866: murinized version of bimagrumab, where the human Fc region of the antibody has been replaced by a mouse Fc” was tested, and the “time-to-progression (days until body weight loss 20% or tumor volume 1,500 mm^3)” value [1] was 16 days, the “time-to-progression (median days elapsed until an interruption criterion)” value [1] was 21 days and the “tumor progression / CT-26 tumor volume and weight” value [2, 3] was “neither accelerated tumor progression”. For the same compound, the “gastrocnemius muscle weight loss” value [2, 4] was 13%, the “body weight loss (of initial body weight)” value ([2]; cisplatin study) was 3% and the CT-26 tumor weight ([2]; everolimus study) was “no significant effect”. The “CT-26-induced loss in body weight” value ([2]; everolimus study) was “completely prevented”, the “CT-26-induced muscle weight loss” value ([2]; everolimus study) was “significantly reduced” and the “body weight in healthy control animals” value (non-tumor bearing mice) was “marked body weight gain”. The “weight of tibialis anterior, gastrocnemius-soleus-plantaris complex and quadriceps muscles in non-tumor bearing group” value (non-tumor bearing mice) was “significantly increased” and the “body weight gain in non-tumor bearing group” value (non-tumor bearing mice) was “increased significantly”.
